In general, EC50 refers to the concentration needed to bring the measured effect to its halfway point.

For series [1], the target named is T1, THRβ (Homo sapiens, UniProt P10828).
T1 construct: RXRα and THRβ-LBD Eu-anti-GST antibody with GST tag
Description: THRβ binding assay (time-resolved FRET coactivator peptide recruitment). The format is biochemical. The settings on record: THRβ-LBD/RXRα, SRC2-2 coactivator peptide recruitment, 4 hours at room temperature. The protocol: Experimental methods: In vitro analysis of the agonistic effect of compounds on THRβ was performed using time-resolved fluorescence resonance energy transfer coactivator peptide recruitment assays. The assay used biotin-SRC2-2 coactivator peptide, streptavidin-d2, RXRα and THRβ-LBD Eu-anti-GST antibody with GST tag. Eu-anti-GST antibody indirectly labeled THRβ-LBD by binding to the GST tag. Streptavidin-d2 indirectly labeled the SRC2-2 coactivator peptide by binding to the biotin tag. In the presence of RXRα, THRβ-LBD can form heterodimer THRβ-LBD/RXRα with it. […] According to the effect of different concentrations of the compound on the activity of THRβ, the agonistic ability of the compound can be evaluated.
The detailed procedure is as follows: • a. 100× reference compound or compound was prepared with DMSO, and equally diluted by 1:3. • b. 100× gradiently diluted reference compound or compound was diluted with 1× reaction buffer to 4×, which was then added to an assay plate. • c. A mixed solution of 4× THRβ-LBD and 4× RXRα was prepared with 1× reaction buffer, and added to the assay plate. • d. A mixed solution of 2× biotin-SRC2-2, 2× Eu-anti-GST, and 2× streptavidin-d2 was prepared with 1× reaction buffer, and added to the assay plate. • e. The assay plate was centrifuged at 1000 rpm for 1 min, and incubated at room temperature in the dark for 4 hours. • f.

Series [2] concerns the target T2, THRα (Homo sapiens, UniProt P10827).
T2 construct: GST
As to the kind of experiment: THRα binding assay (as the THRβ assay, THRβ replaced with THRα). The format is biochemical. The note with it: for EC50: THRα in place of THRβ; for THRα/β selectivity (fold): ratio of THRα EC50 to THRβ EC50.

The nature of series [3]: In vivo pharmacokinetics in mice. The settings on record: male ICR mice, intragastric, single dose 3 mg/Kg; for Area of curve / half-life: plasma; for half-life: mouse, po. The method, then:
Mice were used as test animals, and intragastrically administered with the compounds of Example 1 and Example 46, and then the drug concentrations in plasma at different time points were measured. The pharmacokinetic performance of the compounds of the present invention in mice was studied, and the drug metabolism characteristics were evaluated. In the example, healthy adult male ICR mice with similar body weight were selected, and orally administered with drugs once at a dose of 3.0 mg/kg. Whole blood was collected before the administration and 1 h, 2 h, 4 h, 6 h, 8 h, 12 h, 24 h and 48 h after the administration, respectively. LC/MS/MS method was established to determine the concentrations of prototype drugs in plasma samples. The main pharmacokinetic parameters were calculated using WinNonlin 6.3 NCA model.
Experimental drug: the compounds obtained in Example 1 and Example 46.
Experimental animals: 9 healthy adult male ICR mice, equally divided into 3 groups, 3 mice in each group, purchased from Shanghai Xipu'er-Bikai Experimental Animal Co., Ltd., with an animal certificate number: SOCK (Shanghai) 2018-0006 2018 0006 010467.
Preparation of drug: A certain amount of the compounds of Example 1 and Example 46 were accurately weighed, put into a 15 ml sample tube, wetted by 5 μL of Tween 80, and then added with 5.2 mL of 2% hydroxypropyl methylcellulose (HPMC) solution. The mixture was sonicated and mixed by vortex to obtain a homogeneous suspension. The drugs were freshly prepared just before use.
Administration: After fasting overnight, ICR mice were intragastrically administered with the drugs at a dose of 3.0 mg/kg.
Operation: The mice were intragastrically administered with the compounds of Example 1 and Example 46. Whole blood was collected before the administration and 1 h, 2 h, 4 h, 6 h, 8 h, 12 h, 24 h and 48 h after the administration, then anticoagulated with heparin sodium, and centrifuged at 4° C. for 5 min. Plasma was separated, and stored at −80° C. for determination.
Determination of the contents of the compounds to be tested in the mice plasma after intragastric administration of drugs: 12.5 μL of the mice plasma to be tested at each time point after the administration of the compounds of Example 1 and Example 46 were taken respectively, mixed in pairs, and added with 100 μL of the internal standard solution and 125 μL of methanol. The mixture was mixed by vortex for 2 min, and centrifuged at 13000 rpm for 10 min at 4° C. The supernatant was taken for LC-MS/MS analysis.

The conditions of series [4]: data of phase II, cited from earlier work.
For series [5] the following is noted: preclinical toxicology and data of phase I; cited from earlier work.
Series [6] is described as follows: In vitro liver microsome stability assay. The format is in vitro ADME. The settings on record: liver microsomes, pH 7.4; human, 0.2 mg/mL liver microsomal protein, 1 μM test substance, 37° C.; read-out: Liver microsome stability (species: human): T½. The protocol: The test substance and the positive control substance verapamil were respectively dissolved with DMSO to 10 mM as a stock solution. The above 10 mM stock solution was diluted with 70% acetonitrile aqueous solution to a concentration of 0.25 mM.
An NADPH regeneration system finally containing concentrations of 6.5 mM NADP, 16.5 mM G-6-P, 3 U/mL G-6-PDH, and 3.3 mM MgCl was prepared.
Stopping solution was an acetonitrile solution containing tolbutamide and propranolol (both internal standards).
Phosphate buffer was a 100 mM K3PO4 (pH=7.4) buffer containing 3.3 mM MgCl2.
Liver microsomal incubation system was a 100 mM phosphate buffer containing 0.2 mg/mL liver microsomal protein and 1 μM test substance/positive control.
80 μL of the mixed solution from the incubation system was taken. 400 μL of the stopping solution was added to precipitate protein. The mixture was vortexed and added with 20 μL of NADPH regeneration system as the sample at 0 min.
130 μL of NADPH regeneration system was added to the remaining 520 μL of protein-drug mixed solution. The mixture was mixed well, and incubated. The final incubation system was 650 μL, containing 0.2 mg/mL liver microsomal protein, 1 μM test substance/positive control, 1.3 mM NADP, 3.3 mM G-6-P, and 0.6 U/mL G-6-PDH.
The mixed system was slowly shaken and incubated in a water bath at 37° C. 100 μL of the incubation solution was taken at 5, 10, 30, and 60 min, respectively, and added into a new 96-well plate with 400 μL of stopping solution in each well. The mixture in each well was mixed well, and the protein was precipitated by centrifuging at 4000×g for 15 minutes at 4° C.
100 μL of the supernatant was taken, and diluted with water at a ratio of 1:2. The samples were analyzed by LC-MS/MS.
In general terms: Liver microsomes are vesicles of endoplasmic reticulum, rich in cytochrome P450 enzymes.

T2 sequence (P10827 1-410 isoform P10827-2, other chains not shown): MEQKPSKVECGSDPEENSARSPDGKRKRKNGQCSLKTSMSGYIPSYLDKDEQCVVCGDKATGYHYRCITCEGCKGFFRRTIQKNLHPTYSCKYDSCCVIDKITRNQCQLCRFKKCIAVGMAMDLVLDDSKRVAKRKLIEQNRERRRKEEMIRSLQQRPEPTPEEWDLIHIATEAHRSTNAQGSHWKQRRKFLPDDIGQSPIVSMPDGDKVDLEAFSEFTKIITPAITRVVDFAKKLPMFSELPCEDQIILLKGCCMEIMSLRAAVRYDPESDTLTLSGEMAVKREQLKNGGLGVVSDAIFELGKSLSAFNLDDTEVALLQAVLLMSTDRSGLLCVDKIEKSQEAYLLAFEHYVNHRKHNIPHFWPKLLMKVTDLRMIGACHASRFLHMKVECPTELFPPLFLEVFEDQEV
T2 sequence (P19793 whole entry partner, other chains not shown): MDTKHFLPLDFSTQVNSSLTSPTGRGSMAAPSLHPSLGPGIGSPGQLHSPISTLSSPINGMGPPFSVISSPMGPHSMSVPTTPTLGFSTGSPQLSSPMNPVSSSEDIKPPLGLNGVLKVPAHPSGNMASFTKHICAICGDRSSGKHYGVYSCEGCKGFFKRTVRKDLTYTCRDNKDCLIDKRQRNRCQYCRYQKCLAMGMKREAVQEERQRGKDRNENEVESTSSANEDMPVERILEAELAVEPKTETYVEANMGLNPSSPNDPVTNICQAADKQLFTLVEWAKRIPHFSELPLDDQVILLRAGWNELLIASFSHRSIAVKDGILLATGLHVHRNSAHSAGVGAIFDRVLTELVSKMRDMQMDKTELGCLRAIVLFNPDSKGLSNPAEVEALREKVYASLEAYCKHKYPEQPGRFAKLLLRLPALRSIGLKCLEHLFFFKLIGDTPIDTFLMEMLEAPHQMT
T1 sequence (P10828 217-461 limits assumed, other chains not shown): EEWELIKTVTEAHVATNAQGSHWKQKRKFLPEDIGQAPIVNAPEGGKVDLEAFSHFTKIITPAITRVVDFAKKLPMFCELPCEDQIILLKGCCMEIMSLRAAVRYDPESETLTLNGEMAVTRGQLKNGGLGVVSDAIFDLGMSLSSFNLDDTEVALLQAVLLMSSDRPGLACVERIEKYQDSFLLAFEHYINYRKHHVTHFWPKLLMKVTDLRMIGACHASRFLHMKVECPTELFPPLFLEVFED
T1 sequence (P19793 whole entry partner, other chains not shown, the tested form may be a part): as the sequence (P19793 whole entry partner, other chains not shown) above

The compound `CC(C)n1cc(Oc2c(Cl)cc(-n3nc(C#N)c(=O)[nH]c3=O)cc2Cl)ccc1=O` [Example 1, 2-(3,5-Dichloro-4-((1-isopropyl-6-oxo-1,6-dihydropyridin-3-yl)oxy)phenyl)-3,5-dioxo-2,3,4,5-tetrahydro-1,2,4-triazine-6-carbonitrile] came in with an EC50 in series [1] of 11 nM. In series [2], the concentration for a half-maximal effect (EC50) was 49 nM and the “THRα/β selectivity (fold)” value is 4.5 fold. Further, in series [3], the “Peak plasma concentration” value was 54.0 ng/mL, the “Area of curve” value was 535.2 ng·h/mL and the half-life was 5.6 h.

As for `CC1CCc2c(Oc3c(Cl)cc(-n4nc(C#N)c(=O)[nH]c4=O)cc3Cl)ccc(=O)n21` (centres unmarked) [Example 46, 2-(3,5-dichloro-4-((3-methyl-5-oxo-1,2,3,5-tetrahydroindoline-8-yl)oxy)phenyl)-3,5-dioxo-2,3,4,5-tetrahydro-1,2,4-triazine-6-carbonitrile], a half-maximal effect in series [1] (EC50) was put at 102 nM. In addition, in series [2], the concentration for a half-maximal effect (EC50) is 930 nM and the “THRα/β selectivity (fold)” value is 9.1 fold. For the same compound, in series [3], the “Peak plasma concentration” value was found to be 92.37 ng/mL, the “Area of curve” value is 1774.03 ng·h/mL and the half-life was 11.2 h.

As for `CC(C)c1cc(Oc2c(Cl)cc(-n3nc(C#N)c(=O)[nH]c3=O)cc2Cl)n[nH]c1=O` [Control compound 2, MGL-3196], in series [4] (not related to treatment), the severe cases is on record as 3. Besides, in series [4], the “adverse effects (AEs) mild” value is 85% and the “adverse effects (AEs) moderate” value was 15%. For the same compound, in series [5], the “LDL cholesterol, triglycerides and lipoproteins” value was “significantly reduce”.

`N#Cc1nn(-c2cc(Cl)c(Oc3ccc(=O)n(-c4cccc(F)c4)c3)c(Cl)c2)c(=O)[nH]c1=O` [Example 22, 2-(3,5-Dichloro-4-((1-(3-fluorophenyl)-6-oxo-1,6-dihydropyridin-3-yl)oxy)phenyl)-3,5-dioxo-2,3,4,5-tetrahydro-1,2,4-triazine-6-carbonitrile] gave an EC50 in series [1] of 20 nM. In addition, the half-life at 1 μM in series [6] was > 2 h. For the same compound, in series [2], the half-maximal effective concentration (EC50) amounted to 669 nM and the “THRα/β selectivity (fold)” value was 33.5 fold.
